Measurements from the Kinase Knowledgebase extract (Sharma et al. 2016).

Biological target: PIK3CG (human) (UniProt P48736)
Experiment: Assessment of PIK3CG Kinase Activity

PIK3CG (human), sequence (P48736 whole entry, looked up): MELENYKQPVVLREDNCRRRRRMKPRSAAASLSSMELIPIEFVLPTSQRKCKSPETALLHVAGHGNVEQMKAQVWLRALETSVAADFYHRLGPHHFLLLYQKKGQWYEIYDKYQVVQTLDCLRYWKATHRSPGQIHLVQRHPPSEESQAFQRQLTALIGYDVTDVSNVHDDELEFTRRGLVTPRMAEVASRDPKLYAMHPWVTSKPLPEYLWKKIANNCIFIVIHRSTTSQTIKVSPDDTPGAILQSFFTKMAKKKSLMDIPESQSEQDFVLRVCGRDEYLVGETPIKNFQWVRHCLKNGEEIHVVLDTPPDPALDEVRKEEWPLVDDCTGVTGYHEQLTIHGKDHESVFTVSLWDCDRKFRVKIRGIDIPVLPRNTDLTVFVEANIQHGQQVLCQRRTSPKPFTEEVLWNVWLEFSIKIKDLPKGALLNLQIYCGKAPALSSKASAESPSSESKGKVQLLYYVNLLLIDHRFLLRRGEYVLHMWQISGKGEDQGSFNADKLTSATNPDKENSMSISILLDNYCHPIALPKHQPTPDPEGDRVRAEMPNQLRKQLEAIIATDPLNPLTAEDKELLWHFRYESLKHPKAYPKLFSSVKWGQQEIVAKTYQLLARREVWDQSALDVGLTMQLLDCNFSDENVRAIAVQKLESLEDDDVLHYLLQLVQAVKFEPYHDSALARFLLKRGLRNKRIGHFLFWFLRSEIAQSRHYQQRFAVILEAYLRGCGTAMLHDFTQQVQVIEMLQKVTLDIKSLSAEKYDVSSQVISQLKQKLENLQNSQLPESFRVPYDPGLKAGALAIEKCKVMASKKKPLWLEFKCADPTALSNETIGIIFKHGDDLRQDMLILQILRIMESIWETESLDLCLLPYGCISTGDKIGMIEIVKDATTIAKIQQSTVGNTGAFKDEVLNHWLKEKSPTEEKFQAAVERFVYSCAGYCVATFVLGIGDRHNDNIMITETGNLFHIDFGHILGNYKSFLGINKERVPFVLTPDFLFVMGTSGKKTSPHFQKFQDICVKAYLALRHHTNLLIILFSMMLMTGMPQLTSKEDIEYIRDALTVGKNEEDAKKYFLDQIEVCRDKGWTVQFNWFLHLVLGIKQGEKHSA

Structure (SMILES)	IC50
CC(C)N1CC(=O)N(C)c2cnc(Nc3cc(NC(=O)[C@@H](C)c4ccccc4)cc(S(C)(=O)=O)c3)nc21	< 800 nM
CCN1CCCC1CNC(=O)c1cc(Nc2ncc3c(n2)N(C(C)C)CC(=O)N3C)cc(S(C)(=O)=O)c1 (configuration not stated)	< 800 nM
CC(C)N1CC(=O)N(C)c2cnc(Nc3cc(NC(=O)NCc4ccncc4)cc(S(C)(=O)=O)c3)nc21	< 800 nM
CC(C)N1CC(=O)N(C)c2cnc(Nc3cc(NS(C)(=O)=O)cc(C(=O)NC4CCN(C)C4)c3)nc21 (configuration not stated)	< 800 nM
CC(C)N1CC(=O)N(C)c2cnc(Nc3cc(NC(=O)N[C@@H]4CCNC4)cc(S(C)(=O)=O)c3)nc21	< 800 nM
CNS(=O)(=O)c1cccc(Nc2ncc3c(n2)N(C(C)C)CC(=O)N3C)c1	< 800 nM
CC(C)N1CC(=O)N(C)c2cnc(Nc3cc(NC(=O)NC[C@@H]4CCCO4)cc(S(C)(=O)=O)c3)nc21	< 800 nM
CC(C)N1CC(=O)N(C)c2cnc(Nc3cc(NC(=O)NC[C@H]4CCCN4C4CCCC4)cc(S(C)(=O)=O)c3)nc21	< 800 nM
CC(C)N1CC(=O)N(C)c2cnc(Nc3cc(S(C)(=O)=O)cc(S(C)(=O)=O)c3)nc21	< 800 nM
CC(C)N1CC(=O)N(C)c2cnc(Nc3cc(NC(=O)[C@@H]4CCNC4)cc(S(C)(=O)=O)c3)nc21	< 800 nM
CC(C)N1CC(=O)N(C)c2cnc(Nc3cc(NS(=O)(=O)CC4CCCCC4)cc(S(C)(=O)=O)c3)nc21	< 800 nM
CC(C)N1CC(=O)N(C)c2cnc(Nc3cc(C(=O)NC4CCN(C)CC4)cc(S(C)(=O)=O)c3)nc21	< 800 nM
CC(C)N1CC(=O)N(C)c2cnc(Nc3cc(NC(=O)Cc4cccc(Cl)c4)cc(S(C)(=O)=O)c3)nc21	< 800 nM
CC(C)N1CC(=O)N(C)c2cnc(Nc3cc(NC(=O)[C@@H]4CCCN4)cc(S(C)(=O)=O)c3)nc21	< 800 nM
Cc1cc(CNC(=O)Nc2cc(Nc3ncc4c(n3)N(C(C)C)CC(=O)N4C)cc(S(C)(=O)=O)c2)n[nH]1	< 800 nM
CC(C)N1CC(=O)N(C)c2cnc(Nc3cc(C(=O)NCCC4CCCN4C)cc(C(F)(F)F)c3)nc21 (configuration not stated)	< 800 nM
CC(C)N1CC(=O)N(C)c2cnc(Nc3cc(NC(=O)N[C@H]4CCN(Cc5ccccc5)C4)cc(S(C)(=O)=O)c3)nc21	< 800 nM
CC(C)N1CC(=O)N(C)c2cnc(Nc3cc(C(=O)NCCN4CCNC4=O)cc(C(F)(F)F)c3)nc21	< 800 nM
CC(C)N1CC(=O)N(C)c2cnc(Nc3cc(N(C)C(=O)N[C@@H](C)c4ccccc4)cc(S(C)(=O)=O)c3)nc21	< 800 nM

Structure (SMILES)	IC50
CC(C)N1CC(=O)N(C)c2cnc(Nc3cc(NC(=O)[C@@H](N)c4ccccc4)cc(S(C)(=O)=O)c3)nc21	< 800 nM
CC(C)N1CC(=O)N(C)c2cnc(Nc3cc(N(C)C(=O)Cc4cccs4)cc(S(C)(=O)=O)c3)nc21	< 800 nM
CC(C)N1CC(=O)N(C)c2cnc(Nc3cc(NC(=O)CC4CC4)cc(S(C)(=O)=O)c3)nc21	< 800 nM
CC(C)N1CC(=O)N(C)c2cnc(Nc3cccc(S(=O)(=O)CCN(C)C)c3)nc21	< 800 nM
CC(C)N1CC(=O)N(C)c2cnc(Nc3cc(C(=O)N(C)Cc4ccncc4)cc(S(C)(=O)=O)c3)nc21	< 800 nM
CC(C)N1CC(=O)N(C)c2cnc(Nc3cc(NC(=O)N[C@H]4CC[C@@H](N)CC4)cc(S(C)(=O)=O)c3)nc21	< 800 nM
CC(C)N1CC(=O)N(C)c2cnc(Nc3cc(C(=O)NC4CCN(C)C4)cc(S(C)(=O)=O)c3)nc21 (configuration not stated)	< 800 nM
CC(C)N1CC(=O)N(C)c2cnc(Nc3cc(NC(=O)NC[C@@H]4CCCN4C4CCCC4)cc(S(C)(=O)=O)c3)nc21	< 800 nM
CC(C)N1CC(=O)N(C)c2cnc(Nc3cccc(S(=O)(=O)CCN4CCOCC4)c3)nc21	< 800 nM
COc1cc(Nc2ncc3c(n2)N(C(C)C)CC(=O)N3C)cc(S(C)(=O)=O)c1	< 800 nM
CC(C)N1CC(=O)N(C)c2cnc(Nc3cc(NC(=O)O[C@H]4CCN(C5CCCC5)C4)cc(S(C)(=O)=O)c3)nc21	< 800 nM
CC(C)N1CC(=O)N(C)c2cnc(Nc3cc(NC(=O)NCc4ccccc4)cc(S(C)(=O)=O)c3)nc21	< 800 nM
Cc1c[nH]c(CCNC(=O)c2cc(Nc3ncc4c(n3)N(C(C)C)CC(=O)N4C)cc(NS(C)(=O)=O)c2)n1	< 800 nM
CC(C)N1CC(=O)N(C)c2cnc(Nc3cc(NC(=O)NCCc4cccnc4)cc(S(C)(=O)=O)c3)nc21	< 800 nM
CC(C)N1CC(=O)N(C)c2cnc(Nc3cc(C(N)=O)cc(S(C)(=O)=O)c3)nc21	< 800 nM
CC(C)N1CC(=O)N(C)c2cnc(Nc3cc(NS(=O)(=O)c4cccnc4)cc(S(N)(=O)=O)c3)nc21	< 800 nM
CC(C)N1CC(=O)N(C)c2cnc(Nc3cc(NC(=O)C4CN(C5CCCC5)CCO4)cc(S(C)(=O)=O)c3)nc21 (configuration not stated)	< 800 nM
CC(C)N1CC(=O)N(C)c2cnc(Nc3cc(C#N)cc(S(C)(=O)=O)c3)nc21	< 800 nM
CC(C)N1CC(=O)N(C)c2cnc(Nc3cc(NC(=O)N[C@H]4CC[C@@H](N(C)C)CC4)cc(S(C)(=O)=O)c3)nc21	< 800 nM

Structure (SMILES)	IC50
CC(C)N1CC(=O)N(C)c2cnc(Nc3cc(NS(=O)(=O)c4ccc(F)cc4)cc(S(N)(=O)=O)c3)nc21	< 800 nM
CC(C)N1CC(=O)N(C)c2cnc(Nc3cc(NC(=O)C(C)(C)c4ccccc4)cc(S(C)(=O)=O)c3)nc21	< 800 nM
CC(C)N1CC(=O)N(C)c2cnc(Nc3cc(NS(C)(=O)=O)cc(C(F)(F)F)c3)nc21	< 800 nM
CC(C)CCC(=O)Nc1cc(Nc2ncc3c(n2)N(C(C)C)CC(=O)N3C)cc(S(C)(=O)=O)c1	< 800 nM
CC(C)N1CC(=O)N(C)c2cnc(Nc3cc(NC(=O)[C@H](C)C4CCCCC4)cc(S(C)(=O)=O)c3)nc21	< 800 nM
CC(C)N1CC(=O)N(C)c2cnc(Nc3cc(NC(=O)C[C@H]4CCNC4)cc(S(C)(=O)=O)c3)nc21	< 800 nM
CC(C)N1CC(=O)N(C)c2cnc(Nc3cc(NC(=O)Cc4nnn[nH]4)cc(S(C)(=O)=O)c3)nc21	< 800 nM
CC(C)N1CC(=O)N(C)c2cnc(Nc3cc(NC(=O)N(C)C[C@H]4CCCN4C4CCCC4)cc(S(C)(=O)=O)c3)nc21	< 800 nM
CC(C)N1CC(=O)N(C)c2cnc(Nc3cc(NC(=O)Cc4c[nH]c5ccccc45)cc(S(C)(=O)=O)c3)nc21	< 800 nM
CC(C)N1CC(=O)N(C)c2cnc(Nc3cc(NS(=O)(=O)c4ccc(F)cc4)cc(S(C)(=O)=O)c3)nc21	< 800 nM
CC(C)N1CC(=O)N(C)c2cnc(Nc3cc(NC(=O)[C@H](C)c4ccccc4)cc(S(C)(=O)=O)c3)nc21	< 800 nM
CC(C)N1CC(=O)N(C)c2cnc(Nc3cccc(S(=O)(=O)C(C)C)c3)nc21	< 800 nM
CC(C)N1CC(=O)N(C)c2cnc(Nc3cc(NC(=O)Cc4noc5ccccc45)cc(S(C)(=O)=O)c3)nc21	< 800 nM
CC(C)N1CC(=O)N(C)c2cnc(Nc3cc(NC(=O)NC[C@H]4CCNC4)cc(S(C)(=O)=O)c3)nc21	< 800 nM
CC(C)N1CC(=O)N(C)c2cnc(Nc3cc(N(C)C(=O)NCc4ccccc4)cc(S(C)(=O)=O)c3)nc21	< 800 nM
CN1C(=O)CN(c2ccccc2)c2nc(Nc3cccc(S(=O)(=O)CCNC4CC4)c3)ncc21	< 800 nM
CC(C)N1CC(=O)N(C)c2cnc(Nc3cc(NC(=O)N(C)C[C@@H]4CCCN4C4CCCC4)cc(S(C)(=O)=O)c3)nc21	< 800 nM
CC(C)N1CC(=O)N(C)c2cnc(Nc3cc(NC(=O)Cc4ccccc4)cc(S(C)(=O)=O)c3)nc21	< 800 nM
CC(C)N1CC(=O)N(C)c2cnc(Nc3cc(NC(=O)[C@@H]4CCCN4C4CCCC4)cc(S(C)(=O)=O)c3)nc21	< 800 nM
